The assay has as its target T1, human APJ receptor (Homo sapiens, UniProt P35414).
T1 construct: expressed in transfected cells; host or cells: HEK293
T1 sequence (P35414 1-380): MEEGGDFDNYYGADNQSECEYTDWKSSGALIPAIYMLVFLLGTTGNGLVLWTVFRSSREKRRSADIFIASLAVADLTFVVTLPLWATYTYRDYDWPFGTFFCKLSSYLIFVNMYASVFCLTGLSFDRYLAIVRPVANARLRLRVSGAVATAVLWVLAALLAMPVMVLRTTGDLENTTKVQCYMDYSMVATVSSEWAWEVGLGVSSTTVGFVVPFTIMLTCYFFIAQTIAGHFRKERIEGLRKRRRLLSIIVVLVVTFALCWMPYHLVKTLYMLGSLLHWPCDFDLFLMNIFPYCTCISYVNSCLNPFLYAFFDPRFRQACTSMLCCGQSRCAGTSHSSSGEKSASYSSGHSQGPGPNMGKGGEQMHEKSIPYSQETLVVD
Nature of the assay: Intracellular cAMP accumulation assay (APJ hcAMP, HTRF). Format: cell-based. The conditions noted are these: HEK293 cells stably expressing human APJ receptor, inhibition of forskolin-mediated cAMP production. The procedure, abridged:
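HEK293 cells stably expressing the receptor (5,000/well) treated with compound plus […] and 2 μM forskolin for 30 min at room temperature; cAMP by HTRF against a cAMP standard curve. EC50 from variable-slope sigmoidal fit; Ymax as % of (Pyr1)apelin-13 inhibition.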
In general terms: Changes in cAMP serve as a functional read-out for many G protein-coupled receptors.

[1] abbreviates: read-out: APJ cAMP Potency range.
The mark [2] stands for this setting: read-out: Human APJ cAMP EC50 potency range.

In US11390616B2 (BRISTOL-MYERS SQUIBB COMPANY, priority 2015, dated 2022) one finds EC50 data, which are given here for 25 compounds.

Read-outs that look alike come from different tables or passages of the source.

Consider `CC[C@@H](c1cc(F)cc(F)c1)n1c(COC(C)C)nc(=O)c(Cc2ccc(-c3cccnc3C)cc2)c1O` [Example 111, 1-[(1S)-1-(3,5-difluorophenyl)propyl]-6-hydroxy-5-{[4-(2-methylpyridin-3-yl)phenyl]methyl}-2-[(propan-2-yloxy)methyl]-1,4-dihydropyrimidin-4-one], for which the EC50 under setting [1] was 0.01 to 10 nM.
Same read-out and setting: the value for `CCCCc1nc(O)c(Cc2ccc(-n3ccccc3=O)cc2)c(=O)n1-c1c(OC)cccc1OC` [Example 28, 2-butyl-3-(2,6-dimethoxyphenyl)-6-hydroxy-5-{[4-(2-oxo-1,2-dihydropyridin-1-yl)phenyl]methyl}-3,4-dihydropyrimidin-4-one] was 0.01 to 10 nM; that for `CCc1cccc(CC)c1-n1c(-c2nc(C)cs2)nc(=O)c(Cc2ccc(-c3cccn(C)c3=O)c(F)c2)c1O` [Example 83, 1-(2,6-diethylphenyl)-5-{[3-fluoro-4-(1-methyl-2-oxo-1,2-dihydropyridin-3-yl)phenyl]methyl}-6-hydroxy-2-(4-methyl-1,3-thiazol-2-yl)-1,4-dihydropyrimidin-4-one] was 0.01 to 10 nM; that for `CCCCc1nc(O)c(Cc2ccc(OC)cc2)c(=O)n1-c1ccccc1OC` [Example 3, 2-butyl-6-hydroxy-3-(2-methoxyphenyl)-5-[(4-methoxyphenyl)methyl]-3,4-dihydropyrimidin-4-one] was 100 to 300 nM.
On the same count and under the same terms, under `CCc1cccc(CC)c1-n1c(-c2ccn(C(C)C)n2)nc(=O)c(Cc2ccc(-c3ccc(F)cc3C(N)=O)c(F)c2)c1O` [Example 84, 4′-{[1-(2,6-diethylphenyl)-6-hydroxy-4-oxo-2-[1-(propan-2-yl)-1H-pyrazol-3-yl]-1,4-dihydropyrimidin-5-yl]methyl}-2′,4-difluoro-[1,1′-biphenyl]-2-carboxamide] stands 0.01 to 10 nM.
For `CCCCc1nc(O)c(Cc2ccc(-n3cc(F)ccc3=O)cc2)c(=O)n1-c1c(OC)cccc1OC` [Example 47, 2-butyl-3-(2,6-dimethoxyphenyl)-5-{[4-(5-fluoro-2-oxo-1,2-dihydropyridin-1-yl)phenyl]methyl}-6-hydroxy-3,4-dihydropyrimidin-4-one], under setting [1], the EC50 lay within 0.01 to 10 nM.
The same measure, in the same setting: the value for `CCCCc1nc(=O)c(Cc2cccc(-c3ccc(F)nc3C)c2)c(O)n1[C@@H](CC)c1cc(F)cc(F)c1` [Example 130, 2-butyl-1-[(1S)-1-(3,5-difluorophenyl)propyl]-5-{[3-(6-fluoro-2-methylpyridin-3-yl)phenyl]methyl}-6-hydroxy-1,4-dihydropyrimidin-4-one] was 0.01 to 10 nM.
In the case of `CCCCc1nc(=O)c(Cc2ccc(-c3ccc(F)nc3C)cc2)c(O)n1[C@@H](CC)c1cccc(C#N)c1` [Example 95, (S)-3-(1-(2-butyl-5-(4-(6-fluoro-2-methylpyridin-3-yl)benzyl)-6-hydroxy-4-oxopyrimidin-1(4H)-yl)propyl)benzonitrile], the EC50 under setting [2] lay in the range of 0.01 to 10 nM.
On to `CCCCc1nc(=O)c(Cc2ccc(-n3cc(Cl)ccc3=O)cc2)c(O)n1[C@@H](CC)c1cccc(C#N)c1` [Example 100, 3-[(1S)-1-(2-butyl-5-{[4-(5-chloro-2-oxo-1,2-dihydropyridin-1-yl)phenyl]methyl}-6-hydroxy-4-oxo-1-4-dihydropyrimidin-1-yl)propyl]benzonitrile], for which the EC50 under setting [1] lay within 0.01 to 10 nM.
Still for that read-out and setting: the value for `CCCCc1nc(O)c(Cc2ccc(N3CCCCC3=O)cc2)c(=O)n1-c1c(OC)cccc1OC` [Example 35, 2-butyl-3-(2,6-dimethoxyphenyl)-6-hydroxy-5-{[4-(2-oxopiperidin-1-yl)phenyl]methyl}-3,4-dihydropyrimidin-4-one] was 0.01 to 10 nM.
Same read-out and setting: under `COc1cccc(OC)c1-n1c(CCC2CC2)nc(O)c(Cc2ccc(-n3cc(F)ccc3=O)cc2)c1=O` [Example 56, 2-(2-cyclopropylethyl)-3-(2,6-dimethoxyphenyl)-5-{[4-(5-fluoro-2-oxo-1,2-dihydropyridin-1-yl)phenyl]methyl}-6-hydroxy-3,4-dihydropyrimidin-4-one] stands 0.01 to 10 nM.
Still for that read-out and setting: the value for `CCCCc1nc(O)c(Cc2ccc(-c3ccc(Cl)cc3)nc2)c(=O)n1-c1c(OC)cccc1OC` [Example 14, 2-butyl-5-{[6-(4-chlorophenyl)pyridin-3-yl]methyl}-3-(2,6-dimethoxyphenyl)-6-hydroxy-3,4-dihydropyrimidin-4-one] was 0.01 to 10 nM; that for `COc1cccc(OC)c1-n1c(CCC(C)C)nc(O)c(Cc2ccc(-n3cc(C)ccc3=O)cc2)c1=O` [Example 54, 3-(2,6-dimethoxyphenyl)-6-hydroxy-5-{[4-(5-methyl-2-oxo-1,2-dihydropyridin-1-yl)phenyl]methyl}-2-(3-methylbutyl)-3,4-dihydropyrimidin-4-one] was 0.01 to 10 nM.
Take `CCOCc1nc(=O)c(Cc2ccc(-c3cccnc3C)cc2)c(O)n1[C@@H](COC)c1cc(F)cc(F)c1` [Example 123, 1-[(1R)-1-(3,5-difluorophenyl)-2-methoxyethyl]-2-(ethoxymethyl)-6-hydroxy-5-{[4-(2-methylpyridin-3-yl)phenyl]methyl}-1,4-dihydropyrimidin-4-one]: the EC50 under setting [1] fell in the range of 0.01 to 10 nM.
Still for that read-out and setting: the value for `COc1cccc(OC)c1-n1c(CCC2CC2)nc(O)c(Cc2ccc(-n3cc(C)ccc3=O)cc2)c1=O` [Example 55, 2-(2-cyclopropylethyl)-3-(2,6-dimethoxyphenyl)-6-hydroxy-5-{[4-(5-methyl-2-oxo-1,2-dihydropyridin-1-yl)phenyl]methyl}-3,4-dihydropyrimidin-4-one] was 0.01 to 10 nM.
As for `CC[C@@H](c1cc(F)cc(F)c1)n1c(-c2ccn(CC)n2)nc(=O)c(Cc2ccc(-c3cccnc3C)cc2)c1O` [Example 133, 1-[(1S)-1-(3,5-difluorophenyl)propyl]-2-(1-ethyl-1H-pyrazol-3-yl)-6-hydroxy-5-{[4-(2-methylpyridin-3-yl)phenyl]methyl}-1,4-dihydropyrimidin-4-one], the EC50 under setting [1] was 0.01 to 10 nM.
Turning to `CC[C@@H](c1ccccc1)n1c(-c2nc(C)cs2)nc(=O)c(Cc2ccc(-c3cccn(C)c3=O)c(F)c2)c1O` [Example 119, 5-{[3-fluoro-4-(1-methyl-2-oxo-1,2-dihydropyridin-3-yl)phenyl]methyl}-6-hydroxy-2-(4-methyl-1,3-thiazol-2-yl)-1-[(1S)-1-phenylpropyl]-1,4-dihydropyrimidin-4-one], the EC50 under setting [1] lay in the range of 0.01 to 10 nM.
On the same count and under the same terms, the value for `CCc1cccc(CC)c1-n1c(-c2ccn(C(C)C)n2)nc(=O)c(Cc2ccc(-c3ccnc(F)c3C)c(F)c2)c1O` [Example 85, 1-(2,6-diethylphenyl)-5-{[3-fluoro-4-(2-fluoro-3-methylpyridin-4-yl)phenyl]methyl}-6-hydroxy-2-[1-(propan-2-yl)-1H-pyrazol-3-yl]-1,4-dihydropyrimidin-4-one] was 0.01 to 10 nM; that for `CCCCc1nc(O)c(Cc2ccc(-n3ccc(Cl)cc3=O)cc2)c(=O)n1-c1c(OC)cccc1OC` [Example 42, 2-butyl-5-{[4-(4-chloro-2-oxo-1,2-dihydropyridin-1-yl)phenyl]methyl}-3-(2,6-dimethoxyphenyl)-6-hydroxy-3,4-dihydropyrimidin-4-one] was 0.01 to 10 nM; that for `COc1cccc(OC)c1-n1c(COC(C)C)nc(O)c(Cc2ccc(-n3cc(F)ccc3=O)cc2)c1=O` [Example 59, 3-(2,6-dimethoxyphenyl)-5-{[4-(5-fluoro-2-oxo-1,2-dihydropyridin-1-yl)phenyl]methyl}-6-hydroxy-2-[(propan-2-yloxy)methyl]-3,4-dihydropyrimidin-4-one] was 0.01 to 10 nM.
Same read-out and setting: under `COc1cccc(OC)c1-n1c(COC2CC2)nc(O)c(Cc2ccc(-n3ccccc3=O)cc2)c1=O` [Example 40, 2-(cyclopropoxymethyl)-3-(2,6-dimethoxyphenyl)-6-hydroxy-5-{[4-(2-oxo-1,2-dihydropyridin-1-yl)phenyl]methyl}-3,4-dihydropyrimidin-4-one] stands 0.01 to 10 nM.
For `CCc1cccc(CC)c1-n1c(-c2ccn(C)n2)nc(=O)c(Cc2ccc(-c3ccc(F)cc3C(N)=O)cc2F)c1O` [Example 89, 4′-{[1-(2,6-diethylphenyl)-6-hydroxy-2-(1-methyl-1H-pyrazol-3-yl)-4-oxo-1,4-dihydropyrimidin-5-yl]methyl}-3′,4-difluoro-[1,1′-biphenyl]-2-carboxamide], under setting [1], the EC50 is 0.01 to 10 nM.
Still for that read-out and setting: under `CCCCc1nc(=O)c(Cc2ccc(-c3cccnc3C)cc2)c(O)n1[C@@H](CC)c1cccc(C#N)c1` [Example 96, 3-[(1S)-1-(2-butyl-6-hydroxy-5-{[4-(2-methylpyridin-3-yl)phenyl]methyl}-4-oxo-1,4-dihydropyrimidin-1-yl)propyl]benzonitrile] stands 0.01 to 10 nM.
`COc1cccc(OC)c1-n1c(-c2ccc(F)cc2)nc(O)c(Cc2ccc(-n3cc(F)ccc3=O)cc2)c1=O` [Example 37, 3-(2,6-dimethoxyphenyl)-5-(4-(5-fluoro-2-oxopyridin-1(2H)-yl)benzyl)-2-(4-fluorophenyl)-6-hydroxypyrimidin-4(3H)-one]: the EC50 under setting [2] was in the range of 0.01 to 10 nM.
`CCOCc1nc(=O)c(Cc2ccc(-c3ccc(F)nc3C)cc2)c(O)n1[C@@H](COC)c1cc(F)cc(F)c1` [Example 124, 1-[(1R)-1-(3,5-difluorophenyl)-2-methoxyethyl]-2-(ethoxymethyl)-5-{[4-(6-fluoro-2-methylpyridin-3-yl)phenyl]methyl}-6-hydroxy-1,4-dihydropyrimidin-4-one]: the EC50 under setting [1] was in the range of 0.01 to 10 nM.
